How the values were obtained:
[1] = test system: Brain microsomal fractions; experiment: in vitro Anti-lipid peroxidation effect (TBAR production, Fe3+-ADP/NADPH); format: biochemical, rat (SD strain, male)
Experimental: 1. in vitro Anti-lipid peroxidation effect
Brain microsomal fractions were prepared from male rats of SD strain, and a portion (0.2 mg protein) was incubated at 37° C. for 15 minutes with a mixture of Fe^3+ (0.1 mM)--ADP (0.5 mM) in the presence or absence of the test compound, in final volume of 1 ml of 10 mM HEPES, 150 mM KCl, 0.2 mM NADPH, pH 7.4. After incubation, 1.5 ml of TCA-TBA-HCl reagent (16.7% trichloroacetic acid, 0.4% thiobarbituric acid, 0.278N hydrochloric acid) was added and the reaction mixture was heated in a boiling water for 15 minutes. After cooling in ice-bath, the reaction mixture was centrifuged, and the absorbance of the supernatant at 535 nm was measured. The amount of thiobarbituric acid reactive substance (TBAR) was obtained by calculation using an extinction coefficient of 1.56×10^5 […]. […] The results are shown in Table 1A for compounds of the formulas IA, IB, and IC, respectively. The compounds with highest inhibition rate have the greatest anti-lipid peroxidation effect.

[2] = test system: pig right coronary artery; experiment: in vitro Ca-antagonism (high K+ induced 45Ca-influx); format: cell-based; conditions: Sus scrofa, K+ 75 mM
Experimental: 2. in vitro Ca-antagonism
A strip of pig right coronary artery was depolarized with high K^+ (75 mM) for 30 minutes to induce voltage dependent ^45 Ca-influx. The extracellular ^45 Ca was chelated by adding EGTA and removed by washing, then the strip was lysed at 100° C. ^45 Ca in this lysate was measured as intracellular ^45 Ca by a scintillation counter. The concentration of the test compound was 10^-7, 10^-6, 10^-5 M, and applied until depolarization by K^+ was completed. Ratio of inhibition at various concentrations of the test compounds for increasing the intracellular ^45 Ca by K^+ was determined. The compound with high inhibition ratio has strong Ca-antagonism.

Row | Structure (SMILES) | Anti-Lipid Peroxidation (% inhibition) 10 μM [1] [%] | Anti-Lipid Peroxidation (% inhibition) 50 μM [1] [%] | inhibition at 10 µM [2] [%]
1 | CC(C)c1ccc(CN2CCN(C(c3ccc(F)cc3)c3ccc(F)cc3)CC2)c(=O)c(NCCCN(C)C)c1 [Compound 2C, 7-[4-(4,4'-difluorobenzhydryl)piperazino-1-methyl]-2-(N-3-dimethylaminopropylamino)-4-isopropyl-2,4,6-cycloheptatrien-1-one] | 29.6 | 90.8 | 63
2 | COc1cc(C(C)C)ccc(C(c2ccccc2)N2CCN(C(c3ccccc3)c3ccc(Cl)cc3)CC2)c1=O (stereo not drawn) [Compound 3A, 7-{1-[4-(4-chlorobenzhydryl)piperazinomethyl]-α-phenyl}-4-isopropyl-2-methoxy-2,4,6-cycloheptatrien-1-one] | 13.8 | 16.3 | 0
3 | CNCCNc1cc(C(C)C)ccc(CN2CCN(C(c3ccc(F)cc3)c3ccc(F)cc3)CC2)c1=O [Compound 3C, 7-[4-(4,4'-difluorobenzhydryl)piperazino-1-methyl]-4-isopropyl-2-(N-2-methylaminoethylamino)-2,4,6-cycloheptatrien-1-one] | 88.0 | 91.6 | 49
4 | COc1cc(C(C)C)ccc(C(C)N2CCN(C(c3ccccc3)c3ccc(Cl)cc3)CC2)c1=O (stereo not drawn) [Compound 4A, 7-{1-[4-(4-chlorobenzhydryl)]piperazinomethyl-α-methyl-}-4-isopropyl-2-methoxy-2,4,6-cycloheptatrien-1-one] | 25.8 | 75.1 | 45
5 | COc1cc(C(C)C)ccc(C2Sc3ccccc3N2Cc2ccccn2)c1=O (stereo not drawn) [Compound 4B, 2-(2'-oxo-3'-methoxy-5'-isopropyl-3',5',7'-cycloheptatrienyl)-3-(2-picolyl)benzothiazoline] | 95.7 | 99.3 | –
6 | CC(C)c1ccc(CN2CCN(C(c3ccc(F)cc3)c3ccc(F)cc3)CC2)c(=O)c(NCCN)c1 [Compound 4C, 2-(N-2-aminoethylamino)-7-[4-(4,4'-difluorobenzhydryl)piperazino-1-methyl]-4-isopropyl-2,4,6-cycloheptatrien-1-one] | 45.2 | 92.9 | 54
7 | CCCCC(c1ccc(C(C)C)cc(OC)c1=O)N1CCN(C(c2ccccc2)c2ccc(Cl)cc2)CC1 (stereo not drawn) [Compound 5A] | 30.5 | 38.7 | 19
8 | COc1cc(C(C)C)ccc(C2Sc3ccccc3N2Cc2cccnc2)c1=O (stereo not drawn) [Compound 5B, 2-(2'-oxo-3'-methoxy-5'-isopropyl-3',5',7'-cycloheptatrienyl)-3-(3-picolyl)benzothiazoline] | 95.9 | 100 | –
9 | CC(C)c1ccc(CN2CCN(C(c3ccc(F)cc3)c3ccc(F)cc3)CC2)c(=O)c(N(C)CCN(C)C)c1 [Compound 5C, 7-[4-(4,4'-difluorobenzhydryl)piperazino-1-methyl]-2-(N-2-dimethylaminoethyl-N-methylamino)-4-isopropyl-2,4,6-cycloheptatrien-1-one] | 32.2 | 90.6 | 94
10 | COc1cc(C(C)C)ccc(CN2CCN(C(c3ccccc3)c3ccccc3)CC2)c1=O [Compound 6A, 7-(4-benzhydrylpiperazino-1-methyl)-4-isopropyl-2-methoxy-2,4,6-cycloheptatrien-1-one] | 15.9 | 63.2 | 100
11 | CCN(CCN(C)C)c1cc(C(C)C)ccc(CN2CCN(C(c3ccc(F)cc3)c3ccc(F)cc3)CC2)c1=O [Compound 6C, 7-[4-(4,4'-difluorobenzhydryl)piperazino-1-methyl]-2-(N-2-dimethylaminoethyl-N-ethylamino)-4-isopropyl-2,4,6-cycloheptatrien-1-one] | 35.9 | 91.5 | 87
12 | COc1cc(C(C)C)ccc(C2Sc3ccccc3N2CCc2ccccn2)c1=O (stereo not drawn) [Compound 7B, 2-(2'-oxo-3'-methoxy-5'-isopropyl-3',5',7'-cycloheptatrienyl)-3-[2-(2-pyridyl)ethyl]benzothiazoline] | 91.9 | 94.3 | –
13 | CCN(CC)CCNc1cc(C(C)C)ccc(CN2CCN(C(c3ccc(F)cc3)c3ccc(F)cc3)CC2)c1=O [Compound 7C, 2-(N-2-diethylaminoethylamino)-7-[4-(4,4'-difluorobenzhydryl)piperazino-1-methyl]-4-isopropyl-2,4,6-cycloheptatrien-1-one] | 21.3 | 90.4 | 67
14 | COc1cc(C(C)C)ccc(CN2CCN(C(c3ccc(C(F)(F)F)cc3)c3ccc(C(F)(F)F)cc3)CC2)c1=O [Compound 8A, 7-{4-[4,4'-di(trifluoromethyl)benzhydryl]piperazino-1-methyl}-4-isopropyl-2-methoxy-2,4,6-cycloheptatrien-1-one] | 32.3 | 51.8 | 27
15 | COc1ccc(CCN2c3ccccc3SC2c2ccc(C(C)C)cc(OC)c2=O)cc1OC (stereo not drawn) [Compound 8B, 2-(2'-oxo-3'-methoxy-5'-isopropyl-3',5',7'-cycloheptatrienyl)-3-[2-(3,4-dimethoxyphenyl)ethyl]benzothiazoline] | 93.4 | 93.8 | –
16 | CC(C)c1ccc(CN2CCN(C(c3ccc(F)cc3)c3ccc(F)cc3)CC2)c(=O)c(NCCNCCN)c1 [Compound 8C, 2-[N-2-(N'-2-aminoethylamino)ethylamino]-7-[4-(4,4'-difluorobenzhydryl)piperazino-1-methyl]-4-isopropyl-2,4,6-cycloheptatrien-1-one] | 33.1 | 92.2 | 60
17 | COc1cc(C(C)C)ccc(CN2CCN(C(c3ccccc3)c3ccc(C(F)(F)F)cc3)CC2)c1=O (stereo not drawn) [Compound 9A, 4-isopropyl-2-methoxy-7-[4-(4-trifluoromethylbenzhydryl)piperazino-1-methyl]-2,4,6-cycloheptatrien-1-one] | 29.2 | 88.1 | 45
18 | COc1cc(C(C)C)ccc(C2Sc3ccccc3N2Cc2ccc3ccccc3n2)c1=O (stereo not drawn) [Compound 9B, 2-(2'-oxo-3'-methoxy-5'-isopropyl-3',5',7'-cycloheptatrienyl)-3-(2-quinolyl)methylbenzothiazoline] | 94.9 | 96.6 | –
19 | CC(C)c1ccc(CN2CCN(C(c3ccc(F)cc3)c3ccc(F)cc3)CC2)c(=O)c(NCCNc2ccccn2)c1 [Compound 9C, 7-[4-(4,4'-difluorobenzhydryl)piperazino-1-methyl]-4-isopropyl-2-[N-2-(2-pyridylamino)ethylamino]-2,4,6-cycloheptatrien-1-one] | 88.1 | 91.6 | 38
20 | COc1cc(C(C)C)ccc(C2Sc3ccccc3N2CCCN2CCN(C(c3ccc(F)cc3)c3ccc(F)cc3)CC2)c1=O (stereo not drawn) [Compound 13B, 2-(2'-oxo-3'-methoxy-5'-isopropyl-3',5',7'-cycloheptatrienyl)-3-{3-[4-(4',4'-difluorobenzhydryl)piperazin-1-yl)propyl}benzothiazoline] | 91.8 | 94.4 | –
21 | CC(C)c1ccc(C2Sc3ccccc3N2CCc2ccccc2)c(=O)c(N2CCNCC2)c1 (stereo not drawn) [Compound 15B, 2-[2'-oxo-3'-(1-piperazinyl)-5'-isopropyl-3',5',7'-cycloheptatrienyl]-3-phenethylbenzothiazoline] | 93.0 | 94.4 | –
22 | CC(C)c1ccc(C2Sc3ccccc3N2CCc2ccccc2)c(=O)c(NCCN(C)C)c1 (stereo not drawn) [Compound 16B] | 91.2 | 95.1 | –
23 | CC(C)c1ccc(CN2CCN(C(c3ccc(F)cc3)c3ccc(F)cc3)CC2)c(=O)c(OCCCN(C)CCc2ccccc2)c1 [Compound 18A, 7-[4-(4,4'-difluorobenzhydryl)piperazino-1-methyl]-2-[3-(N-methyl-N-phenethylamino)propoxy]-4-isopropyl-2,4,6-cycloheptatrien-1-one] | 37.0 | 93.1 | –

— patent US5594144A, “Tropolone derivatives and pharmaceutical composition thereof for preventing and treating ischemic diseases” (The Upjohn Company, priority 1990, dated 1997)
